Experimental data published in patent US9403830B2, “Inhibitors of leukotriene production” (Boehringer Ingelheim International GmbH, priority 2012, dated 2016).

Columns and labels:
human LTA4 hydrolase = target: T1, human LTA4 hydrolase (Homo sapiens, UniProt P09960); assay: LTA4H Enzyme assay (peptidase, Arg-AMC cleavage); type: biochemical; details: LTA4H enzyme 1 nM, Arg-AMC substrate 50 μM, room temperature 1 h, fluorescence 380/460 nm
T1 sequence (P09960 1-611): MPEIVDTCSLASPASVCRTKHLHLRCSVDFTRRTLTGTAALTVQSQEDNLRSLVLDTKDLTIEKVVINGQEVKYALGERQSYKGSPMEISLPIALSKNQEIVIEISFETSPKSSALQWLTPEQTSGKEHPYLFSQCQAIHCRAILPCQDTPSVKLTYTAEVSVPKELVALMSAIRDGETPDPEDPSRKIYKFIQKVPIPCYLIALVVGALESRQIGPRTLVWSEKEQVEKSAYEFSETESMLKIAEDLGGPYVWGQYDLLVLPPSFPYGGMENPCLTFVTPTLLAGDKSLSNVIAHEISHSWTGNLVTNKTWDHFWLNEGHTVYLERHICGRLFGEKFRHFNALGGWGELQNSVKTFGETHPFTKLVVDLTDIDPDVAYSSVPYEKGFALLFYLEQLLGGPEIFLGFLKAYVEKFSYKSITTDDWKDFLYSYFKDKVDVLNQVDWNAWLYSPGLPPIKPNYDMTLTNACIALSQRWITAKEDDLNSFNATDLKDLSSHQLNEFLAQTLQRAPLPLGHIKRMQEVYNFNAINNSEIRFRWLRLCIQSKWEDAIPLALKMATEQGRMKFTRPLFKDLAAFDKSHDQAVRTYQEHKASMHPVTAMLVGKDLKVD
In short: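 Human LTA4H (1 nM final) incubated with compound and Arg-AMC (50 μM final) in 50 mM Tris-HCl pH 7.5, 100 mM KCl, 0.5% BSA, 1 h at room temperature. Product read as AMC fluorescence (ex 380/em 460 nm); IC50 reported.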

[1] = tested on: LTB4 synthesis in human whole blood; assay: human whole blood (HWB) assay, inhibition of LTB4 production; type: cell-based; details: heparinized human whole blood, calcimycin 20 μM stimulation, plasma LTB4
In short: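 Heparinized human whole blood preincubated with compound 15 min at 37 °C, then stimulated with 20 μM (final) calcimycin for 30 min at 37 °C. Plasma LTB4 measured by antibody-based HTRF; IC50 reported.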

Row | Structure (SMILES) | IC50 (human LTA4 hydrolase) [nM] | IC50 [1] [nM]
1 | c1cc(-c2ccc(Oc3ccc4[nH]c(CNCC5CCCO5)nc4c3)cc2)[nH]n1 (stereo not drawn) [Example 97, {5-[4-(2H-Pyrazol-3-yl)-phenoxy]-1H-benzoimidazol-2-ylmethyl}-(tetrahydro-furan-2-ylmethyl)-amine] | 0.54 | 160
2 | O=S1(=O)CCN(CCn2cc3cc(Oc4ccc(-c5ccn[nH]5)cc4)ccc3n2)CC1 [Example 176, 2-[2-(1,1-Dioxo-1-λ-6-thiomorpholin-4-yl)-ethyl]-5-[4-(2H-pyrazol-3-yl)-phenoxy]-2H-indazole] | 0.32 | 140
3 | CN(C)Cc1ccc2cc(Oc3ccc(-c4ccn[nH]4)cc3)ccc2n1 [Example 123, Dimethyl-{6-[4-(2H-pyrazol-3-yl)-phenoxy]-quinolin-2-ylmethyl}-amine] | 0.44 | 240
4 | CC[C@@H](C)N(C)Cc1nc2cc(Oc3ccc(-c4ccn[nH]4)cc3)ccc2[nH]1 [Example 80, ((R)-sec-Butyl)-methyl-{5-[4-(2H-pyrazol-3-yl)-phenoxy]-1H-benzoimidazol-2-ylmethyl}-amine] | 0.09 | 98
5 | FC(F)(F)C1CCN(Cc2nc3cc(Oc4ccc(-c5ccn[nH]5)cc4)ccc3[nH]2)C1 (stereo not drawn) [Example 196, 5-[4-(2H-Pyrazol-3-yl)-phenoxy]-2-(3-trifluoromethyl-pyrrolidin-1-ylmethyl}-1H-benzoimidazole] | 0.17 | 180
6 | O=C(O)C1CCN(Cc2cn3cc(Oc4ccc(-c5ccn[nH]5)cc4)ccc3n2)CC1 [Example 259, 1-{6-[4-(2H-Pyrazol-3-yl)-phenoxy]-imidazo[1,2-a]pyridin-2-ylmethyl}-piperidine-4-carboxylic acid] | 0.12 | 2100
7 | c1cc(-c2ccc(Cc3ccc4nc(CN5CCCC5)[nH]c4c3)cc2)[nH]n1 [Example 54, 6-[4-(2H-Pyrazol-3-yl)-benzyl]-2-pyrrolidin-1-ylmethyl-1H-benzoimidazole] | 0.13 | 94
8 | CC(=O)NC1CCN(CCCn2ncc3cc(Oc4ccc(-c5ccn[nH]5)cc4)ccc32)CC1 [Example 109, N-[1-(3-{5-[4-(2H-Pyrazol-3-yl)-phenoxy]-indazol-1-yl}-propyl)-piperidin-4-yl]-acetamide] | 0.47 | 230

Now from value to molecule:

Row | IC50 (human LTA4 hydrolase) [nM] | IC50 [1] [nM] | Structure (SMILES)
9 | 4.2 | 1300 | NC(=O)C1CCN(CC2CCc3ccc(Oc4ccc(-c5ccn[nH]5)cn4)cc3O2)CC1 (stereo not drawn) [Example 9, 1-{7-[5-(2H-Pyrazol-3-yl)-pyridin-2-yloxy]-chroman-2-ylmethyl}-piperidine-4-carboxylic acid amide]
10 | 0.93 | 170 | N#CC1CCN(Cc2ccc3cc(Oc4ccc(-c5ccn[nH]5)cn4)ccc3n2)CC1 [Example 99, 1-{6-[5-(2H-pyrazol-3-yl)-pyridin-2-yloxy]-quinolin-2-ylmethyl}-piperidine-4-carbonitrile]
11 | 0.39 | 190 | CNC(=O)C1CCN(CCc2coc3cc(Oc4ccc(-c5ccn[nH]5)cn4)ccc23)CC1 [Example 138, 1-(2-{6-[5-(2H-Pyrazol-3-yl)-pyridin-2-yloxy]-benzofuran-3-yl}-ethyl)-piperidine-4-carboxylic acid methylamide]
12 | 0.88 | 360 | CC(=O)N1CCN(Cc2ccc3cc(Oc4ccc(-c5ccn[nH]5)cn4)ccc3n2)[C@H](CO)C1 [Example 42, 1-((S)-3-Hydroxymethyl-4-{6-[5-(2H-pyrazol-3-yl)-pyridin-2-yloxy]-quinolin-2-ylmethyl}-piperazin-1-yl)-ethanone]
13 | 0.94 | 230 | CC(=O)N1CCN(Cc2cc3cc(Oc4ccc(-c5ccn[nH]5)cn4)ccc3cn2)CC1 [Example 223, 1-(4-{6-[5-(2H-Pyrazol-3-yl)-pyridin-2-yloxy]-isoquinolin-3-ylmethyl}-piperazin-1-yl)-ethanone]
14 | 0.56 | 180 | CC(=O)N1CCCN(CCC2COc3cc(Oc4ccc(-c5ccn[nH]5)cn4)ccc32)CC1 (stereo not drawn) [Example 135, 1-[4-(2-{6-[5-(2H-Pyrazol-3-yl)-pyridin-2-yloxy]-2,3-dihydro-benzofuran-3-yl}-ethyl)-[1,4]diazepan-1-yl]-ethanone]
15 | 0.76 | 280 | C[C@@H]1CN(C(=O)CO)CCN1Cc1ccc2cc(Oc3ccc(-c4ccn[nH]4)cn3)ccc2n1 [Example 38, 2-Hydroxy-1-((R)-3-methyl-4-{6-[5-(2H-pyrazol-3-yl)-pyridin-2-yloxy]-quinolin-2-ylmethyl}-piperazin-1-yl)-ethanone]
